ChEMBL document CHEMBL4842340, “Development of Cagrilintide, a Long-Acting Amylin Analogue” (J Med Chem, 2021)
≈ marks a conversion by molar mass, not a printed value.

Assays:
[1] = Agonist activity at human AMY3R (CT+RAMP3) expressed in Hollex1 cells incubated for 3 hrs by luminescence assay; assay type: cell-based; conditions: Hollex1, 3 h
[2] = Agonist activity at human calcitonin receptor expressed in BHK570 cells assessed as increase in intracellular cAMP concentration incubated for 3 hrs in absence of albumin by CRE luciferase reporter gene assay; assay type: cell-based; conditions: BHK570, 3 h
Homo sapiens [3] = organism: Homo sapiens; assay: Ratio of EC50 for human calcitonin receptor expressed in BHK570 cells to EC50 for human AMY3R (CT+RAMP3) expressed in Hollex1 cells; assay type: cell-based
[4] = Agonist activity at rat AMY3R (CT+RAMP3) expressed in tk-ts13 cells assessed as increase in intracellular cAMP level incuabted for 25 mins by CRE luciferase reporter gene assay; assay type: cell-based; conditions: tk-ts13, 25 min
[5] = Agonist activity at rat calcitonin receptor expressed in BHK-13 cells assessed as increase in intracellular cAMP concentration incubated for 25 mins by CRE luciferase reporter gene assay; assay type: cell-based; conditions: BHK-13, 25 min
Rattus norvegicus [6] = organism: Rattus norvegicus; assay: Ratio of EC50 for rat calcitonin receptor expressed in BHK-13 cells to EC50 for rat AMY3R (CT+RAMP3) expressed in tk-ts13 cells; assay type: cell-based
[7] = Displacement of [125I]-amylin from human AMY3R (CTR+RAMP3) expressed in BHK-13 cells measured after 120 mins by scintillation proximity assay; assay type: cell-based
[8] = Displacement of [125I]-calcitonin from human calcitonin receptor expressed in tk-ts 13 cells measured after 120 mins by scintillation proximity assay; assay type: cell-based; conditions: tk-ts13
Homo sapiens [9] = organism: Homo sapiens; assay: Ratio of IC50 for displacement of [125I]-calcitonin from human calcitonin receptor expressed in tk-ts 13 cells to IC50 for displacement of [125I]-amylin from human AMY3R (CTR+RAMP3) expressed in BHK-13 cells; assay type: cell-based
[10] = Displacement of [125I]-amylin from rat AMY3R (CTR+RAMP3) expressed in BHK-13 cells measured after 120 mins by scintillation proximity assay; assay type: cell-based
[11] = Displacement of [125I]-calcitonin from rat calcitonin receptor expressed in tk-ts 13 cells measured after 120 mins by scintillation proximity assay; assay type: cell-based; conditions: tk-ts13
Rattus norvegicus [12] = organism: Rattus norvegicus; assay: Ratio of IC50 for displacement of [125I]-calcitonin from rat calcitonin receptor expressed in tk-ts 13 cells to IC50 for displacement of [125I]-amylin from rat AMY3R (CTR+RAMP3) expressed in BHK-13 cells; assay type: cell-based
[13] = Solubility of the compound in lactate at pH 3 by UPLC analysis; assay type: physicochemical; conditions: lactate buffer
[14] = Solubility of the compound in lactate at pH 4 by UPLC analysis; assay type: physicochemical; conditions: lactate buffer
[15] = Solubility of the compound in lactate at pH 5 by UPLC analysis; assay type: physicochemical; conditions: lactate buffer
[16] = Solubility of the compound in bis-tris propane at pH 6 by UPLC analysis; assay type: physicochemical; conditions: bis-tris propane buffer
[17] = Solubility of the compound in bis-tris propane at pH 6.5 by UPLC analysis; assay type: physicochemical; conditions: bis-tris propane buffer
[18] = Solubility of the compound in bis-tris propane at pH 7 by UPLC analysis; assay type: physicochemical; conditions: bis-tris propane buffer
[19] = Solubility of the compound in bis-tris propane at pH 7.5 by UPLC analysis; assay type: physicochemical; conditions: bis-tris propane buffer
[20] = Solubility of the compound in bis-tris propane at pH 8 by UPLC analysis; assay type: physicochemical; conditions: bis-tris propane buffer
Insulin (Homo sapiens) [21] = molecular target: Insulin (Homo sapiens) (UniProt P01308); assay: Effect on insulin (unknown origin) amyloid fibril formation assessed as lag time in glycyl-glycine buffer at pH 4 measured after 45 hrs by thioflavin-T fluorescence assay
Insulin (Homo sapiens) [22] = molecular target: Insulin (Homo sapiens) (UniProt P01308); assay: Effect on insulin (unknown origin) amyloid fibril formation assessed as peptide recovery in glycyl-glycine buffer at pH 4 measured after 45 hrs by thioflavin-T fluorescence assay relative to control; parameters: concentration or dose not given beside the values
Insulin (Homo sapiens) [23] = molecular target: Insulin (Homo sapiens) (UniProt P01308); assay: Effect on insulin (unknown origin) amyloid fibril formation assessed as lag time in HEPES buffer at pH 7.5 measured after 45 hrs by thioflavin-T fluorescence assay
Insulin (Homo sapiens) [24] = molecular target: Insulin (Homo sapiens) (UniProt P01308); assay: Effect on insulin (unknown origin) amyloid fibril formation assessed as peptide recovery in HEPES buffer at pH 7.5 measured after 45 hrs by thioflavin-T fluorescence assay relative to control
Rattus norvegicus [25] = assay: Reduction in food intake in Sprague-Dawley rat at 30 nmol/kg, sc administered as single dose measured upto 24 hrs relative to control; assay type: functional; parameters: scale not given: the % may be the effect or the level left; conditions: time hrs <=24
Rattus norvegicus [26] = assay: Reduction in food intake in Sprague-Dawley rat at 30 nmol/kg, sc administered as single dose measured after 24 to 48 hrs relative to control; assay type: functional; parameters: scale not given: the % may be the effect or the level left; conditions: time 24-48 hrs
Rattus norvegicus [27] = assay: Reduction in food intake in Sprague-Dawley rat at 3 nmol/kg, sc administered as single dose measured upto 24 hrs relative to control; assay type: functional; parameters: scale not given: the % may be the effect or the level left; conditions: time hrs <=24
Rattus norvegicus [28] = assay: Reduction in food intake in Sprague-Dawley rat at 3 nmol/kg, sc administered as single dose measured after 24 to 48 hrs relative to control; assay type: functional; parameters: scale not given: the % may be the effect or the level left; conditions: time 24-48 hrs
[29] = Dose normalized AUC in Sprague-Dawley rat at 10 nmol/kg, iv measured up to 96 hrs by LC-MS analysis; assay type: ADME, organism-based; conditions: in vivo
[30] = Apparent volume of distribution in Sprague-Dawley rat at 10 nmol/kg, iv measured up to 96 hrs by LC-MS analysis; assay type: ADME, organism-based; conditions: in vivo, read-out: Vz
[31] = Clearance in Sprague-Dawley rat at 10 nmol/kg, iv measured up to 96 hrs by LC-MS analysis; assay type: ADME, organism-based; conditions: in vivo
[32] = Half life in Sprague-Dawley rat at 10 nmol/kg, iv measured up to 96 hrs by LC-MS analysis; assay type: ADME, organism-based; conditions: in vivo
[33] = Dose normalized AUC in Sprague-Dawley rat at 10 nmol/kg, sc measured up to 96 hrs by LC-MS analysis; assay type: ADME, organism-based; conditions: in vivo
[34] = Half life in Sprague-Dawley rat at 10 nmol/kg, sc measured up to 96 hrs by LC-MS analysis; assay type: ADME, organism-based; conditions: in vivo
[35] = Bioavailability in Sprague-Dawley rat at 10 nmol/kg, sc measured up to 96 hrs by LC-MS analysis; assay type: ADME, organism-based; conditions: in vivo

Sequence of Insulin (Homo sapiens) (P01308 whole entry): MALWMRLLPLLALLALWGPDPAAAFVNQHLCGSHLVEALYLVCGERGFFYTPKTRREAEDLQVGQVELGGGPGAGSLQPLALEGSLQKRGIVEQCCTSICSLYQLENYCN

CC[C@H](C)[C@H](NC(=O)[C@@H]1CCCN1C(=O)CNC(=O)[C@H](Cc1ccccc1)NC(=O)[C@H](CC(N)=O)NC(=O)[C@H](CC(N)=O)NC(=O)[C@H](CO)NC(=O)[C@H](CO)NC(=O)[C@H](Cc1c[nH]cn1)NC(=O)[C@H](CCCNC(=N)N)NC(=O)[C@H](CC(C)C)NC(=O)[C@H](Cc1ccccc1)NC(=O)[C@H](CCC(=O)O)NC(=O)[C@H](C)NC(=O)[C@H](CC(C)C)NC(=O)[C@H](CCCNC(=N)N)NC(=O)[C@H](CCC(N)=O)NC(=O)[C@@H](NC(=O)[C@H](C)NC(=O)[C@@H]1CSSC[C@H](NC(=O)[C@H](CCCCN)NC(=O)CC[C@H](NC(=O)CCCCCCCCCCCCCCCCCCC(=O)O)C(=O)O)C(=O)N[C@@H](CC(N)=O)C(=O)N[C@@H]([C@@H](C)O)C(=O)N[C@@H](C)C(=O)N[C@@H]([C@@H](C)O)C(=O)N1)[C@@H](C)O)C(=O)N[C@@H](CC(C)C)C(=O)N1CCC[C@H]1C(=O)N1CCC[C@H]1C(=O)N[C@H](C(=O)N[C@@H](CC(N)=O)C(=O)N[C@H](C(=O)NCC(=O)N[C@@H](CO)C(=O)N[C@@H](CC(N)=O)C(=O)N[C@H](C(=O)N1CCC[C@H]1C(N)=O)[C@@H](C)O)C(C)C)[C@@H](C)O
EC50 [1]: 0.049 nM
EC50 [2]: 0.062 nM
Ratio EC50 (Homo sapiens [3]): 1
EC50 [4]: 0.348 nM
EC50 [5]: 0.287 nM
Ratio EC50 (Rattus norvegicus [6]): 1
IC50 [7]: 0.17 nM
IC50 [8]: 0.223 nM
Ratio IC50 (Homo sapiens [9]): 1
IC50 [10]: 0.52 nM
IC50 [11]: 0.681 nM
Ratio IC50 (Rattus norvegicus [12]): 1
solubility [13]: 200 µM (≈ 882 µg/mL)
solubility [14]: 200 µM (≈ 882 µg/mL)
solubility [15]: 200 µM (≈ 882 µg/mL)
solubility [16]: 200 µM (≈ 882 µg/mL)
solubility [17]: 200 µM (≈ 882 µg/mL)
solubility [18]: 200 µM (≈ 882 µg/mL)
solubility [19]: 200 µM (≈ 882 µg/mL)
solubility [20]: 200 µM (≈ 882 µg/mL)
TIME (Insulin (Homo sapiens) [21]): 45 h
Activity (Insulin (Homo sapiens) [22]): 96%
TIME (Insulin (Homo sapiens) [23]): 41 h
Activity (Insulin (Homo sapiens) [24]): 76%
Activity (Rattus norvegicus [25]): 85%
Activity (Rattus norvegicus [26]): 84%
Activity (Rattus norvegicus [27]): 40%
Activity (Rattus norvegicus [28]): 29%
AUC/dose [29]: 266 kg·h/L
Vd [30]: 0.109 L/kg
clearance [31]: 3.77 mL/h/kg
half-life [32]: 20 h
AUC/dose [33]: 87 kg·h/L
half-life [34]: 27 h
bioavailability [35]: 30%
